Assay results published in PubChem BioAssay AID1259407 (Chemical Carcinogenesis Research Information System (CCRIS), 2018).
Active and inactive are the calls of the source. No rule for the calls is given here.

Tested on: CCRIS mutagenicity, Ames/micronucleus/aberration tests
Experiment: CCRIS mutagenicity studies
[1] = Test System: AMES SALMONELLA TYPHIMURIUM, Strain/Indicator: TA100, Metabolic Activation: NONE, Method: PREINCUBATION
[2] = Test System: AMES SALMONELLA TYPHIMURIUM, Strain/Indicator: TA1535, Metabolic Activation: NONE, Method: PREINCUBATION
[3] = Test System: AMES SALMONELLA TYPHIMURIUM, Strain/Indicator: TA1537, Metabolic Activation: NONE, Method: PREINCUBATION
[4] = Test System: AMES SALMONELLA TYPHIMURIUM, Strain/Indicator: TA98, Metabolic Activation: NONE, Method: PREINCUBATION

Question: For `Nc1ccccc1S`, which mutagenic call (End Point: In vitro chromosomal aberrations, Test System: Chinese hamster lung (CHL/IU) cells, Metabolic Activation: Rat, Liver, S9, Phenobarbital and 5,6-benzoflavone) is on record?
Answer: active; positive (structural changes and ploidy).

Question: And the mutagenic call (Test System: AMES SALMONELLA TYPHIMURIUM, Strain/Indicator: TA98, Metabolic Activation: RAT, LIVER, S-9, PHENOBARBITAL AND BETA-NAPHTHOFLAVONE, Method: PREINCUBATION)?
Answer: inactive; negative

Question: What about the mutagenic call [1] of the same compound?
Answer: inactive; negative

Question: And the mutagenic call (Test System: AMES SALMONELLA TYPHIMURIUM, Strain/Indicator: TA100, Metabolic Activation: RAT, LIVER, S-9, PHENOBARBITAL AND BETA-NAPHTHOFLAVONE, Method: PREINCUBATION)?
Answer: inactive; negative

Question: What about the mutagenic call [2] of the same compound?
Answer: inactive; negative

Question: And the mutagenic call (Test System: AMES SALMONELLA TYPHIMURIUM, Strain/Indicator: TA1535, Metabolic Activation: RAT, LIVER, S-9, PHENOBARBITAL AND BETA-NAPHTHOFLAVONE, Method: PREINCUBATION)?
Answer: inactive; negative

Question: What about the mutagenic call [3] of the same compound?
Answer: inactive; negative

Question: And the mutagenic call (Test System: AMES SALMONELLA TYPHIMURIUM, Strain/Indicator: TA1537, Metabolic Activation: RAT, LIVER, S-9, PHENOBARBITAL AND BETA-NAPHTHOFLAVONE, Method: PREINCUBATION)?
Answer: inactive; negative

Question: What about the mutagenic call (Test System: AMES SALMONELLA TYPHIMURIUM, Strain/Indicator: TA1537, Metabolic Activation: RAT, LIVER, S-9, SODIUM PHENOBARBITAL AND 5,6-BENZOFLAVONE, Method: PREINCUBATION) of the same compound?
Answer: inactive; negative

Question: What about the mutagenic call (Test System: E. COLI, Strain/Indicator: WP2UVRA, Metabolic Activation: NONE, Method: PREINCUBATION) of the same compound?
Answer: inactive; negative

Question: And the mutagenic call (Test System: E. COLI, Strain/Indicator: WP2UVRA, Metabolic Activation: RAT, LIVER, S-9, PHENOBARBITAL AND BETA-NAPHTHOFLAVONE, Method: PREINCUBATION)?
Answer: inactive; negative

Question: Which mutagenic call (Test System: AMES SALMONELLA TYPHIMURIUM, Strain/Indicator: TA98, Metabolic Activation: HAMSTER, LIVER, S-9, AROCLOR 1254 (10%), Method: PREINCUBATION) does the source give for `O=c1nc(O)n(Cl)c(=O)n1Cl` here?
Answer: inactive; negative

Question: What about the mutagenic call [4] of the same compound?
Answer: inactive; negative

Question: And the mutagenic call (Test System: AMES SALMONELLA TYPHIMURIUM, Strain/Indicator: TA98, Metabolic Activation: RAT, LIVER, S-9, AROCLOR 1254 (10%), Method: PREINCUBATION)?
Answer: inactive; negative

Question: And the mutagenic call (Test System: AMES SALMONELLA TYPHIMURIUM, Strain/Indicator: TA100, Metabolic Activation: HAMSTER, LIVER, S-9, AROCLOR 1254 (10%), Method: PREINCUBATION)?
Answer: inactive; negative

Question: And the mutagenic call [1]?
Answer: inactive; negative

Question: And the mutagenic call (Test System: AMES SALMONELLA TYPHIMURIUM, Strain/Indicator: TA100, Metabolic Activation: RAT, LIVER, S-9, AROCLOR 1254 (10%), Method: PREINCUBATION)?
Answer: inactive; negative

Question: And the mutagenic call (Test System: AMES SALMONELLA TYPHIMURIUM, Strain/Indicator: TA1535, Metabolic Activation: HAMSTER, LIVER, S-9, AROCLOR 1254 (10%), Method: PREINCUBATION)?
Answer: inactive; negative

Question: And the mutagenic call [2]?
Answer: inactive; negative

Question: And the mutagenic call (Test System: AMES SALMONELLA TYPHIMURIUM, Strain/Indicator: TA1535, Metabolic Activation: RAT, LIVER, S-9, AROCLOR 1254 (10%), Method: PREINCUBATION)?
Answer: inactive; negative

Question: And the mutagenic call (Test System: AMES SALMONELLA TYPHIMURIUM, Strain/Indicator: TA1537, Metabolic Activation: HAMSTER, LIVER, S-9, AROCLOR 1254 (10%), Method: PREINCUBATION)?
Answer: inactive; negative

Question: What about the mutagenic call [3] of the same compound?
Answer: inactive; negative

Question: What about the mutagenic call (Test System: AMES SALMONELLA TYPHIMURIUM, Strain/Indicator: TA1537, Metabolic Activation: RAT, LIVER, S-9, AROCLOR 1254 (10%), Method: PREINCUBATION) of the same compound?
Answer: inactive; negative

Question: With `CC(C)(C)c1cc(-c2ccccc2)ccc1N=O` as the compound, how does the mutagenic call (Test System: AMES SALMONELLA TYPHIMURIUM, Strain/Indicator: TA98, Metabolic Activation: NONE, Method: STANDARD PLATE) read?
Answer: active; positive

Question: And the mutagenic call (Test System: AMES SALMONELLA TYPHIMURIUM, Strain/Indicator: TA98, Metabolic Activation: S-9, Method: STANDARD PLATE)?
Answer: active; positive

Question: What about the mutagenic call (Test System: AMES SALMONELLA TYPHIMURIUM, Strain/Indicator: TA100, Metabolic Activation: NONE, Method: STANDARD PLATE) of the same compound?
Answer: active; positive

Question: What about the mutagenic call (Test System: AMES SALMONELLA TYPHIMURIUM, Strain/Indicator: TA100, Metabolic Activation: S-9, Method: STANDARD PLATE) of the same compound?
Answer: active; positive

Question: How did the mutagenic call (Test System: AMES SALMONELLA TYPHIMURIUM, Strain/Indicator: TA98, Metabolic Activation: HAMSTER, LIVER, S-9, AROCLOR 1254, Method: PREINCUBATION) turn out when `Oc1ccc(Cl)c(Cl)c1` was run?
Answer: inactive; negative

Question: And the mutagenic call [4]?
Answer: inactive; negative

Question: What about the mutagenic call (Test System: AMES SALMONELLA TYPHIMURIUM, Strain/Indicator: TA98, Metabolic Activation: RAT, LIVER, S-9, AROCLOR 1254, Method: PREINCUBATION) of the same compound?
Answer: inactive; negative

Question: What about the mutagenic call (Test System: AMES SALMONELLA TYPHIMURIUM, Strain/Indicator: TA100, Metabolic Activation: HAMSTER, LIVER, S-9, AROCLOR 1254, Method: PREINCUBATION) of the same compound?
Answer: inactive; negative

Question: And the mutagenic call [1]?
Answer: inactive; negative

Question: And the mutagenic call (Test System: AMES SALMONELLA TYPHIMURIUM, Strain/Indicator: TA100, Metabolic Activation: RAT, LIVER, S-9, AROCLOR 1254, Method: PREINCUBATION)?
Answer: inactive; negative

Question: And the mutagenic call (Test System: AMES SALMONELLA TYPHIMURIUM, Strain/Indicator: TA1535, Metabolic Activation: HAMSTER, LIVER, S-9, AROCLOR 1254, Method: PREINCUBATION)?
Answer: inactive; negative

Question: And the mutagenic call [2]?
Answer: inactive; negative

Question: What about the mutagenic call (Test System: AMES SALMONELLA TYPHIMURIUM, Strain/Indicator: TA1535, Metabolic Activation: RAT, LIVER, S-9, AROCLOR 1254, Method: PREINCUBATION) of the same compound?
Answer: inactive; negative

Question: And the mutagenic call (Test System: AMES SALMONELLA TYPHIMURIUM, Strain/Indicator: TA1537, Metabolic Activation: HAMSTER, LIVER, S-9, AROCLOR 1254, Method: PREINCUBATION)?
Answer: inactive; negative

Question: What about the mutagenic call [3] of the same compound?
Answer: inactive; negative

Question: And the mutagenic call (Test System: AMES SALMONELLA TYPHIMURIUM, Strain/Indicator: TA1537, Metabolic Activation: RAT, LIVER, S-9, AROCLOR 1254, Method: PREINCUBATION)?
Answer: inactive; negative

Question: For `CC(C)(C)c1cc(/C=C/c2cc(C(C)(C)C)c(O)c(C(C)(C)C)c2)cc(C(C)(C)C)c1O`, which mutagenic call [4] is on record?
Answer: inactive; negative

Question: What about the mutagenic call (Test System: AMES SALMONELLA TYPHIMURIUM, Strain/Indicator: TA98, Metabolic Activation: RAT, LIVER, S-9, Method: PREINCUBATION) of the same compound?
Answer: inactive; negative

Question: And the mutagenic call [1]?
Answer: inactive; negative

Question: And the mutagenic call (Test System: AMES SALMONELLA TYPHIMURIUM, Strain/Indicator: TA100, Metabolic Activation: RAT, LIVER, S-9, Method: PREINCUBATION)?
Answer: inactive; negative
